The text below walks through data of ChEMBL document CHEMBL2057206, “Symmetrical approach of spiro-pyrazolidinediones as acetyl-CoA carboxylase inhibitors” (Bioorg Med Chem Lett, 2012).

For orientation: IC50 means the concentration needed to halve the response being measured. In general, logD refers to lipophilicity at a set pH, counting ionised and neutral species.

The target of series [1] is Acetyl-CoA carboxylase 1 (Homo sapiens, UniProt Q13085). The series is described as follows: Inhibition of human ACC1 using acetyl-coA as substrate incubated for 60 mins prior to substrate addition measured after 20 mins by malachite green assay.
The nature of series [2]: Clearance in human liver microsomes assessed per mg of protein. The format is ADME, Microsome. The note with it: read-out: CLH. On the technique in general: Liver microsomes are vesicles of endoplasmic reticulum, rich in cytochrome P450 enzymes.
Series [3] in a line: Lipophilicity, log D of the compound by HPLC analysis at pH 7. The series is classed as physicochemical. Conditions: buffer.
For series [4], the target named is Acetyl-CoA carboxylase 2 (Homo sapiens, UniProt O00763). The series is described as follows: Inhibition of human ACC2 using acetyl-coA as substrate incubated for 60 mins prior to substrate addition measured after 20 mins by malachite green assay.
Acetyl-CoA carboxylase 2, sequence (O00763 whole entry): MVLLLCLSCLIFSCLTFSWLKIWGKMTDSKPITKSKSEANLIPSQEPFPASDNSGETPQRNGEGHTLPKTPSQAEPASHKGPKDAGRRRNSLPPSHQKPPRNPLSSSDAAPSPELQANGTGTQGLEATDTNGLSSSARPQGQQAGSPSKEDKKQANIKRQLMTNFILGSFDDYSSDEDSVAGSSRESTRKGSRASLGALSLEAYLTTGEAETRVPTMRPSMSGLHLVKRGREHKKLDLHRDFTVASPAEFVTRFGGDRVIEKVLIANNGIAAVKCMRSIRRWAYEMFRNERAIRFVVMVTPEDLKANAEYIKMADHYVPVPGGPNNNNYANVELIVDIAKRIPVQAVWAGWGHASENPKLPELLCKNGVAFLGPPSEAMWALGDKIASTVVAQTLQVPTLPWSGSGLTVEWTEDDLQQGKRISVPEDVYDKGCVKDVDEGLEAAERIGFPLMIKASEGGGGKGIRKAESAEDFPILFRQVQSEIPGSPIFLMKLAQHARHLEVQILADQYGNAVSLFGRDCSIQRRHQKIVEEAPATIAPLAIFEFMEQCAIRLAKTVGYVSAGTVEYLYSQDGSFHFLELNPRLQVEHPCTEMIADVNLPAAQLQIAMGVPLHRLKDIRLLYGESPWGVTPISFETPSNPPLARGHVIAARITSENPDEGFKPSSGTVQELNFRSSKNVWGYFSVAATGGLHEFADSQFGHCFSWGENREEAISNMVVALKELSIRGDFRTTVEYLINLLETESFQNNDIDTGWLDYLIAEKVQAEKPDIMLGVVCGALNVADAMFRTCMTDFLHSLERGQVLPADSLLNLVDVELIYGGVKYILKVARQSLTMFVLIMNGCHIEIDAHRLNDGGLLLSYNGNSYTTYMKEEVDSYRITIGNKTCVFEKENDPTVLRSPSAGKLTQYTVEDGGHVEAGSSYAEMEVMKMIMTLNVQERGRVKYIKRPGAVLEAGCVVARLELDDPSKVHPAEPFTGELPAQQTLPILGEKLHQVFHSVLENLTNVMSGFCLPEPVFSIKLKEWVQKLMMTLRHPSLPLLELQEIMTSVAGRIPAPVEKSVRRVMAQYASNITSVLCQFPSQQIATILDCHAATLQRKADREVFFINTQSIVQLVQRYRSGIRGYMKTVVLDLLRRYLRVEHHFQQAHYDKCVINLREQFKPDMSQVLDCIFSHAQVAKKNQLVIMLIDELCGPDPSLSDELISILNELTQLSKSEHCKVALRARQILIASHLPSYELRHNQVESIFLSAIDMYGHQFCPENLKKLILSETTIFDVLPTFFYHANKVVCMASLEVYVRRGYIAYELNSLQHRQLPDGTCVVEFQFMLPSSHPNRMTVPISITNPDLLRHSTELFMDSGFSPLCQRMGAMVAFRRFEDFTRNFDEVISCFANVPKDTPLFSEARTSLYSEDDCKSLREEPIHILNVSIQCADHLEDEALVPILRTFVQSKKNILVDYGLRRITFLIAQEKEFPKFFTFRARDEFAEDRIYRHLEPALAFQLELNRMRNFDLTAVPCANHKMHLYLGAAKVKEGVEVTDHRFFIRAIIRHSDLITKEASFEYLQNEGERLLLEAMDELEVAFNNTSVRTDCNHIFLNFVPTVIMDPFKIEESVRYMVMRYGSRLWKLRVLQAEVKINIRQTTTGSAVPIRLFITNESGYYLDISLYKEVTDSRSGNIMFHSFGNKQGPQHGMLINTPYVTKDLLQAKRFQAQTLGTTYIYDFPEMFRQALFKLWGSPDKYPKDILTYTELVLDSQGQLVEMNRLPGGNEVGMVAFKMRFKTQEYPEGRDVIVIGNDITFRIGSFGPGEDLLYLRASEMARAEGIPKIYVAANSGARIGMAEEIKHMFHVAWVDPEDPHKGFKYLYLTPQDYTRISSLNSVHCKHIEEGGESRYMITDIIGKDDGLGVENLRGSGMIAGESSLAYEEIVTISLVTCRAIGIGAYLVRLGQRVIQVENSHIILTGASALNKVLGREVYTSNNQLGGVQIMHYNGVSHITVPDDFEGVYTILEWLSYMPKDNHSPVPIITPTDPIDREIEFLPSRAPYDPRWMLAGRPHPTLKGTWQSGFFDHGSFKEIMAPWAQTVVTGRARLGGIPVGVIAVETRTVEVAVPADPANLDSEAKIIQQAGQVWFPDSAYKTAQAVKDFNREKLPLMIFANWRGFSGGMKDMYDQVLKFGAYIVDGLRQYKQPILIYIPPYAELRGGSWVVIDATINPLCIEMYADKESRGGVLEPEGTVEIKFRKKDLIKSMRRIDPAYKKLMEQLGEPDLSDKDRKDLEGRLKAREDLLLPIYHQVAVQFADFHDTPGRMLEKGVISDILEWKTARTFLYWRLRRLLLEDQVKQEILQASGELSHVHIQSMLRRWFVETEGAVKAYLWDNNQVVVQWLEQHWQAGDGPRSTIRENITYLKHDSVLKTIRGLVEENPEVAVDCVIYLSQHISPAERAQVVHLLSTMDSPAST
Series [5] deals with Rattus norvegicus. The series is described as follows: Antidyslipidemic activity in po dosed Wistar fatty rat assessed as reduction in respiratory quoteint after 3 hrs. The format is functional, organism-based.
Series [6] in a line: Inhibition of rat ACC2.
Series [7] deals with Acetyl-CoA carboxylase 1 (Rattus norvegicus, UniProt P11497). The series is described as follows: Inhibition of rat ACC1.
Series [8] concerns Rattus norvegicus. The series is described as follows: Antidyslipidemic activity in Wistar fatty rat assessed as reduction in respiratory quoteint at 1 mg/kg, po after 3 hrs. The series is classed as functional, organism-based. Further details: dose 1 mg/kg.

Active and inactive are the calls of the source. The calls are words filed in the database; no cut-off is given here.

As to `CNC(=O)Nc1sc2ccccc2c1C(=O)N1CCC(N2CCCC3(C2)C(=O)N2CCCCCN2C3=O)CC1`, the concentration for half-maximal inhibition (IC50) came to 48 nM in series [1] and 8.7 nM in series [4]. For the same molecule, in series [2], the microsomal CLint was found to be 71 µL/min/mg. The logD in series [3] turned out to be 2.14.

`CCNC(=O)Nc1sc2ccccc2c1C(=O)N1CCC(N2CCCC3(C2)C(=O)N2CCCCCCN2C3=O)CC1`: the results for the IC50 in series [1] and in series [4] were 22 nM and 5.1 nM, respectively. Moreover, the microsomal CLint in series [2] was found to be 200 µL/min/mg. The same molecule yielded a logD in series [3] of 2.73.

`CCNC(=O)Nc1sc2ccccc2c1C(=O)N1CCC(N2CCCC3(C2)C(=O)N2CCCCN2C3=O)CC1`: the concentration for half-maximal inhibition (IC50) in series [1] stood at 130 nM; in series [4], 23 nM. In addition, in series [2], the microsomal CLint is 18 µL/min/mg. In series [3], this molecule had a logD of 2.45.

Take `CNC(=O)Nc1sc2c(OC)cccc2c1C(=O)N1CCC(N2CCCC3(C2)C(=O)N2CCCCN2C3=O)CC1`: the concentration for half-maximal inhibition (IC50) in series [1] was 25 nM; in series [4], 6.1 nM. For the same molecule, in series [2], the microsomal CLint stood at 6 µL/min/mg. Besides, in series [3], the logD worked out at 2.08.

For `CNC(=O)Nc1sc2ccccc2c1C(=O)N1CCC(N2CCCC3(C2)C(=O)N2CCCCN2C3=O)CC1`, the IC50 was 200 nM in series [1] and 36 nM in series [4]. Also, the microsomal CLint in series [2] was 12 µL/min/mg. In series [3], this molecule registered a log distribution coefficient (logD) of 2.14.

With `CCNC(=O)Nc1sc2ccccc2c1C(=O)N1CCC(N2CCCC3(C2)C(=O)N(C)N(C)C3=O)CC1`, the IC50 in series [1] was 120 nM; in series [4], 20 nM. Moreover, the microsomal CLint in series [2] was determined as 12 µL/min/mg. Moreover, the log distribution coefficient (logD) in series [3] was 2.03.

For the molecule `CCNC(=O)Nc1sc2ccccc2c1C(=O)N1CCC(N2CCCC3(C2)C(=O)N2CCCN2C3=O)CC1`, the 50% inhibitory concentration (IC50) came out at 170 nM in series [1] and 33 nM in series [4]. Moreover, in series [2], the microsomal CLint stood at 25 µL/min/mg. The molecule also returned a logD in series [3] of 1.93.

As for `COc1cccc2c(C(=O)N3CCC(N4CCCC5(C4)C(=O)N4CCCCN4C5=O)CC3)c(NC(N)=O)sc12`, the IC50 was found to be 22 nM in series [1] and 5.9 nM in series [4]. In addition, the microsomal CLint in series [2] is 15 µL/min/mg. In series [3], this molecule registered a pH-dependent lipophilicity (logD) of 1.76.

On to `CCNC(=O)Nc1sc2ccccc2c1C(=O)N1CCC(N2CCCC3(C2)C(=O)N2CCCCCN2C3=O)CC1`, for which the IC50 in series [1] was 43 nM; in series [4], 7.5 nM. For the same molecule, in series [2], the microsomal CLint was determined as 100 µL/min/mg. The same molecule came in with a logD in series [3] of 2.48.

For the molecule `CCN1C(=O)C2(CCCN(C3CCN(C(=O)c4c(NC(=O)NC)sc5ccccc45)CC3)C2)C(=O)N1CC`, the figures for the IC50 in series [1] and in series [4] were 41 nM and 8.1 nM, respectively. In addition, the microsomal CLint in series [2] was found to be 120 µL/min/mg. Moreover, the logD in series [3] came out at 2.33.

In the case of `CCNC(=O)Nc1sc2c(OC)cccc2c1C(=O)N1CCC(N2CCCC3(C2)C(=O)N2CCCCN2C3=O)CC1`, the Activity entry in series [5] was “Dose-dependent effect”. For the same molecule, the IC50 in series [6] was 13 nM; in series [1], 21 nM; in series [7], 28 nM; in series [4], 4.9 nM. For the same molecule, the microsomal CLint in series [2] was 35 µL/min/mg. This molecule also yielded a logD in series [3] of 2.33. In addition, in series [8], the result was Active.
